Measured values reported in article PMC4700476, “Differential regulation by AMP and ADP of AMPK complexes containing different γ subunit isoforms” (Biochemical Journal, 2016).
Where “and” joins values, the source holds several entries; their conditions need not be identical. Identical values can stand only once.

Legend:
[1] = tested on: γ1-containing AMPK complexes in HEK-293 cells expressing FLAG–γ1; set-up: method as in PMID 25695398; details: anti-FLAG IP; cited from earlier work
[2] = tested on: γ3-containing AMPK complexes in mouse skeletal muscle; set-up: method as in PMID 25695398; details: cited from earlier work
[3] = tested on: γ1-containing AMPK complexes in mouse skeletal muscle; set-up: method as in PMID 25695398; details: cited from earlier work
[4] = tested on: γ3-containing AMPK complexes in HEK-293 cells expressing FLAG–γ3; set-up: method as in PMID 25695398; details: anti-FLAG IP; cited from earlier work
[5] = tested on: γ2-containing AMPK complexes in HEK-293 cells expressing FLAG–γ2; set-up: method as in PMID 25695398; details: anti-FLAG IP; cited from earlier work
[6] = tested on: glucose uptake; set-up: method as in PMID 25695398; details: mouse skeletal muscle; cited from earlier work
[7] = biological target: T1, AMPK γ2 complex (dephosphorylated, FLAG-tagged human γ2) (Homo sapiens, UniProt Q13131+Q9UGJ0); test: Promotion of LKB1-dependent activation and Thr172 phosphorylation; type: biochemical; details: ADP 1 mM, 5 mM ATP
T1 construct: would have predominantly been the α1β2γ1, α1β2γ2 or α1β2γ3 complexes; expressed in transfected cells; host or cells: HEK-293 (Flp recombinase target site, tetracycline-inducible); anti-FLAG immunoprecipitate
Description: (§1) Cell lysates (140, 500 and 2000 μg of lysate protein for γ1, γ2 and γ3 respectively) were incubated with 100 μl of EZview Red anti-FLAG M2 affinity gel, immunoprecipitated and washed as described previously. The IPs were resuspended in 100 μl of Hepes assay buffer and incubated in an orbital incubator with PP1γ (55 μg in 10 μl) in Hepes assay buffer for 30 min at 30°C. The dephosphorylation reactions were stopped by washing the IPs three times in Hepes assay buffer. The precipitates were then resuspended in 1 ml of Hepes assay buffer and divided into 100-μl aliquots. After centrifugation, 75 μl of each supernatant was removed, 5 μl of okadaic acid (final concentration 25 μM) was added and incubation continued for 5 min at 30°C. After this, AMP or ADP and LKB1 were added as specified and the reaction started by adding a mixture of MgCl2 (final concentration 9.8 mM) and ATP (final concentration 5 mM). Incubation was for 10 min at 30°C, after which the reactions were stopped by washing the IPs three times in Hepes assay buffer. They were resuspended in 400 μl of assay buffer and split for assays and analysis by Western blotting.
(§2) We next tested whether AMP promoted Thr^172 phosphorylation by LKB1, using complexes containing γ1, γ2 or γ3 expressed in HEK-293 cells and isolated using anti-FLAG antibody. The IPs were treated with the protein phosphatase-1 catalytic subunit (PP1γ) to remove phosphate from Thr^172, were washed to remove PP1γ, and okadaic acid was added to block the activity of any residual phosphatase. They were then treated with limiting quantities of LKB1 in the presence of 5 mM ATP (to mimic physiological conditions), with or without 1 mM AMP.
(§3) Figure 5 Effect of AMP on activation and Thr^172 phosphorylation of AMPK-γ isoforms induced by upstream kinases (A) Effect of a limiting quantity of LKB1, with or without AMP (1 mM), on AMPK activity. Anti-FLAG IPs from AMPK-γ1-, -γ2- or -γ3-expressing cells were treated with PP1γ to bring about complete dephosphorylation of Thr^172. PP1γ was removed by washing and okadaic acid was added to ensure complete inhibition of any residual phosphatase. The IPs were then incubated for 10 min with 5 mM ATP with or without LKB1 (1 μg) and with or without 1 mM AMP. […] (B) Effect of different concentrations of AMP on activation and Thr^172 phosphorylation of the AMPK-γ1 complex. Experiment as in (A) except using various concentrations of AMP in the presence of 5 mM ATP. Results in the upper panel (means ± S.E.M., n=6) are expressed relative to the control without AMP. Results were fitted to the equation: Y=1+[(activation–1) × X]/(EC50+X), where Y is the relative activity, X is the concentration of AMP, activation is the predicted maximal activation, and EC50 is the concentration of AMP causing half-maximal activation. The continuous line is the curve generated using this equation with the parameters quoted in the text. […] (C) As (A), except that we also tested the effects of 1 mM AMP on activation by CaMKKβ as well as LKB1. The amount of CaMKKβ added (0.34 μg) yielded a similar limited degree of activation to LKB1.
(§4) Figure 6 Effect of ADP on activation and Thr^172 phosphorylation of AMPK-γ isoforms induced by upstream kinases (A) Effect of AMP or ADP on activation of γ1-, γ2- or γ3-containing AMPK complexes induced by LKB1 in the presence of 5 mM ATP. Dephosphorylated AMPK complexes were generated as in Figure 3(A) and were incubated for 10 min with LKB1 with or without AMP (300 μM), ADP (1 mM) or the 5′-nucleotidase CD73 (0.86 μg). […] (B) Duplicate blots from the experiment shown in (A). (C) Effect of ADP on activation of AMPK-γ1 complexes by LKB1 in the presence of 5 mM ATP. The experiment was performed as in (A) except with various concentrations of ADP. Results (means ± S.E.M., n=3) are expressed relative to the basal activity in the absence of ADP and were fitted to the equation used for Figure 3(B). […]

[8] = biological target: T2, AMPK γ1 complex (dephosphorylated, FLAG-tagged human γ1) (Homo sapiens, UniProt P54619+Q13131); test: as above; type: biochemical; details: 5 mM ATP
T2 construct: would have predominantly been the α1β2γ1, α1β2γ2 or α1β2γ3 complexes; expressed in transfected cells; host or cells: HEK-293 (Flp recombinase target site, tetracycline-inducible); anti-FLAG immunoprecipitate
Description: as §1, §2, §3, §4

[9] = biological target: T3, AMPK γ3 complex (dephosphorylated, FLAG-tagged human γ3) (Homo sapiens, UniProt Q13131+Q9UGI9); test: as above; type: biochemical; details: ADP 1 mM, 5 mM ATP
T3 construct: would have predominantly been the α1β2γ1, α1β2γ2 or α1β2γ3 complexes; expressed in transfected cells; host or cells: HEK-293 (Flp recombinase target site, tetracycline-inducible); anti-FLAG immunoprecipitate
Description: as §1, §2, §3, §4

[10] = tested on: AMPK γ1 complex (dephosphorylated, FLAG-tagged human γ1); test: as above; type: biochemical; details: 5 mM ATP, imprecise estimate, read-out: IC50 for the inhibitory effect on activation by LKB1
Description: as §1, §2, §3, §4

[11] = biological target: T4, AMPK γ3 complex (FLAG-tagged human γ3) (Homo sapiens, UniProt Q13131+Q9UGI9); test: Protection against inactivation and Thr172 dephosphorylation by PP2Cα; type: biochemical; details: 5 mM ATP, read-out: half-maximal effect for protection against inactivation by PP2Cα
T4 construct: would have predominantly been the α1β2γ1, α1β2γ2 or α1β2γ3 complexes; expressed in transfected cells; host or cells: HEK-293 (Flp recombinase target site, tetracycline-inducible); anti-FLAG immunoprecipitate
Description: (§5) AMPK was activated by incubating the cells in phenformin (10 mM) for 60 min prior to cell lysis. Cell lysates (225, 225 and 455 μg of lysate protein for γ1, γ2 and γ3 respectively) were incubated with 100 μl of EZview Red anti-FLAG M2 affinity gel beads at 4°C for 2 h on a roller mixer. The beads were washed twice with 1 ml of immunoprecipitation buffer and twice with 1 ml of Hepes assay buffer, resuspended in 1 ml of assay buffer and divided into 100-μl aliquots. The beads were recovered by centrifugation and 75 μl of the supernatant removed. In a final volume of 50 μl, AMP, ADP (as specified), ATP (5 mM) and PP2Cα (1.5 μg) were added and the reaction was started by adding MgCl2 (9.8 mM) to activate PP2Cα; the reactions were then conducted in a shaking incubator at 30°C for 10 min. They were stopped by washing the beads three times in assay buffer, resuspending them in 400 μl of assay buffer and dividing them into aliquots for kinase assays and analysis by Western blotting.
(§6) Finally, we addressed the effects of AMP and ADP on the dephosphorylation of γ1, γ2 and γ3 complexes by the protein phosphatase PP2Cα. Cells expressing γ1, γ2 or γ3 complexes were treated with phenformin to promote Thr^172 phosphorylation, the complexes were then isolated by immunoprecipitation and equal amounts (based on anti-FLAG blots) were treated with a limiting quantity of PP2Cα in the presence of increasing concentrations of AMP or ADP. As before, in order to simulate physiological conditions, these assays were performed in the presence of 5 mM ATP. […] The similar effects of AMP on all three complexes were confirmed by Western blot analysis using anti-pThr^172 antibodies (lower panel). The effects of ADP are shown in Figure 7(B); similar to results previously obtained with rat liver AMPK [28]
(§7) Figure 7 Effect of AMP and ADP on protection against Thr^172 dephosphorylation, measured at 5 mM ATP (A) […], -γ2 or -γ3 complexes were immunoprecipitated from cells treated with phenformin to cause maximal Thr^172 phosphorylation. The IPs were then incubated for 10 min with the protein phosphatase PP2Cα in the presence of 5 mM ATP and various concentrations of AMP. Inactivation was assessed by kinase assays (top panel) and Thr^172 dephosphorylation by Western blot (bottom panels). Results (means ± S.E.M., n=2) in the top panel are shown as percentage protection, which is the inactivation compared with control (without AMP), expressed as a percentage of the inactivation compared with control at the highest concentration of AMP used. Results were fitted to the equation Y=100 × X/(EC50+X) where Y is the percentage protection, X is the concentration of AMP, and EC50 is the concentration of AMP causing half-maximal protection. The continuous lines are the curves generated using this equation using the best-fit parameters quoted in the text. […] (B) As (A), but varying ADP in place of AMP.

[12] = biological target: T5, AMPK γ2 complex (FLAG-tagged human γ2) (Homo sapiens, UniProt Q13131+Q9UGJ0); test: as above; type: biochemical; details: 5 mM ATP, read-out: half-maximal effect for protection against inactivation by PP2Cα
T5 construct: would have predominantly been the α1β2γ1, α1β2γ2 or α1β2γ3 complexes; expressed in transfected cells; host or cells: HEK-293 (Flp recombinase target site, tetracycline-inducible); anti-FLAG immunoprecipitate
Description: as §5, §6, §7

[13] = biological target: T6, AMPK γ1 complex (FLAG-tagged human γ1) (Homo sapiens, UniProt P54619+Q13131); test: as above; type: biochemical; details: 5 mM ATP, read-out: half-maximal effect for protection against inactivation by PP2Cα
T6 construct: would have predominantly been the α1β2γ1, α1β2γ2 or α1β2γ3 complexes; expressed in transfected cells; host or cells: HEK-293 (Flp recombinase target site, tetracycline-inducible); anti-FLAG immunoprecipitate
Description: as §5, §6, §7

T2 sequence (P54619 whole entry): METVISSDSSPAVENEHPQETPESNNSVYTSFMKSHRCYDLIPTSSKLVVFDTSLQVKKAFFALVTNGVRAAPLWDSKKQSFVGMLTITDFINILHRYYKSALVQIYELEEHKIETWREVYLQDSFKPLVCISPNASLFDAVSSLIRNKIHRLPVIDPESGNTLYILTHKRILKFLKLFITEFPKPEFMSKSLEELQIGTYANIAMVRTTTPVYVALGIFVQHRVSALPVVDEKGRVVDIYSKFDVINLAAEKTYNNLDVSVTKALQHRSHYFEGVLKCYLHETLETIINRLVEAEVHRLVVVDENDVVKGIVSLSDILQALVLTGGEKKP
T2 sequence (Q13131 whole entry): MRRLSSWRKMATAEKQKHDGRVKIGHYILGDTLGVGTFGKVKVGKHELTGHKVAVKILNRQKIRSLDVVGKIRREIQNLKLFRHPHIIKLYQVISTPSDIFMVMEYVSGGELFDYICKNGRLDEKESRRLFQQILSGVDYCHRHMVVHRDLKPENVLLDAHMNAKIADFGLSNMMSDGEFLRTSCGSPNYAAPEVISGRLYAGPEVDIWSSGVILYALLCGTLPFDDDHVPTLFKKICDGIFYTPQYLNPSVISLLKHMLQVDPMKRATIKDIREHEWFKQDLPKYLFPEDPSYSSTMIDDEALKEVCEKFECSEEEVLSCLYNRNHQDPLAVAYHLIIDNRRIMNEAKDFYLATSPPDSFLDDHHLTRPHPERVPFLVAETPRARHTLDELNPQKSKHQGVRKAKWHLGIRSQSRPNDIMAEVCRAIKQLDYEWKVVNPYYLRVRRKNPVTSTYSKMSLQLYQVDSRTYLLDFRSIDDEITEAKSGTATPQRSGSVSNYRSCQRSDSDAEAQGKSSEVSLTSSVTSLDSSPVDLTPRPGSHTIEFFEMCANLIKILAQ
T2 sequence (O43741 whole entry partner): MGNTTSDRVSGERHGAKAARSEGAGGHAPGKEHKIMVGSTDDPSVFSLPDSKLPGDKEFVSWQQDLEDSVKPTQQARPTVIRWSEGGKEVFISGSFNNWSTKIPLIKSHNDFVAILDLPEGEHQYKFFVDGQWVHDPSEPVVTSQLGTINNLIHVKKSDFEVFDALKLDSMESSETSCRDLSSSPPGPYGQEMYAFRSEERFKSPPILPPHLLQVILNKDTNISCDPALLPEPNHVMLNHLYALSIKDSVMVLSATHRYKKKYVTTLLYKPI
T6 sequence (P54619 whole entry): as the sequence (P54619 whole entry) above
T6 sequence (Q13131 whole entry): as the sequence (Q13131 whole entry) above
T6 sequence (O43741 whole entry partner): as the sequence (O43741 whole entry partner) above
T5 sequence (Q9UGJ0 whole entry): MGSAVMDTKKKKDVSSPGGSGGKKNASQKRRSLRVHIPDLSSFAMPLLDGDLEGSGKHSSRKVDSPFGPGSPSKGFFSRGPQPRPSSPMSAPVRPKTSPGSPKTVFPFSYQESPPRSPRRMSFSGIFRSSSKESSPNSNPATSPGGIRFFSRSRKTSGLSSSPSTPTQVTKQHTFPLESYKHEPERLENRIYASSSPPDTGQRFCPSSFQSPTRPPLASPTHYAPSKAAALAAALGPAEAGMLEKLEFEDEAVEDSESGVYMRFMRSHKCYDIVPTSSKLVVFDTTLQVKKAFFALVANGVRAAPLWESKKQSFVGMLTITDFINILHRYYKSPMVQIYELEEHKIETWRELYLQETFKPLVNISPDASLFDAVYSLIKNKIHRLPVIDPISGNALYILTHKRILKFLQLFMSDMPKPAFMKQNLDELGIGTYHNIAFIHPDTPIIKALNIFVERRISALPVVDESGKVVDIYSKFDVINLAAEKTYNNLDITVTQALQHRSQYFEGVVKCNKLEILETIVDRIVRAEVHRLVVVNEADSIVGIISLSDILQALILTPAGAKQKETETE
T5 sequence (Q13131 whole entry): as the sequence (Q13131 whole entry) above
T5 sequence (O43741 whole entry partner): as the sequence (O43741 whole entry partner) above
T1 sequence (Q9UGJ0 whole entry): as the sequence (Q9UGJ0 whole entry) above
T1 sequence (Q13131 whole entry): as the sequence (Q13131 whole entry) above
T1 sequence (O43741 whole entry partner): as the sequence (O43741 whole entry partner) above
T3 sequence (Q9UGI9 whole entry): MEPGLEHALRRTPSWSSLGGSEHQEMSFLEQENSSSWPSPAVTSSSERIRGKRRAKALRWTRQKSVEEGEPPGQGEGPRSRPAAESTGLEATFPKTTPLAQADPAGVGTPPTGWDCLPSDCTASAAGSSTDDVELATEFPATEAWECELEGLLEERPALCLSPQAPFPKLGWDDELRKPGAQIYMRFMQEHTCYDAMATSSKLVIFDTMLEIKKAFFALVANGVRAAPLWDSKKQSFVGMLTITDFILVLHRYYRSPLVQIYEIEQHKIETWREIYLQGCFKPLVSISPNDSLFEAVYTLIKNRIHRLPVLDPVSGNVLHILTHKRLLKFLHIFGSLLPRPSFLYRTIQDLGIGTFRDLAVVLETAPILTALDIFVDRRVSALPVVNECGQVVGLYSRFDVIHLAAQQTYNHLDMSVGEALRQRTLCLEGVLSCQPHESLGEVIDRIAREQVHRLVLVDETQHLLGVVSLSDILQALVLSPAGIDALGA
T3 sequence (Q13131 whole entry): as the sequence (Q13131 whole entry) above
T3 sequence (O43741 whole entry partner): as the sequence (O43741 whole entry partner) above
T4 sequence (Q9UGI9 whole entry): as the sequence (Q9UGI9 whole entry) above
T4 sequence (Q13131 whole entry): as the sequence (Q13131 whole entry) above
T4 sequence (O43741 whole entry partner): as the sequence (O43741 whole entry partner) above

Compound | activation of complex in HEK-293 cells [1] | activation of γ3-containing complexes [2] | activation of γ1-containing complexes [3] | activation of complex in HEK-293 cells [4] | activation of complex in HEK-293 cells [5] | glucose uptake [6] | effect on activation by LKB1 [7] | EC50 ([8]; imprecise estimate, read-out: EC50 for the activating effect on activation by LKB1) | stimulation of activation caused by Thr172 phosphorylation by LKB1 ([8]; ADP) [fold] | activation (best-fit, promotion of activation by LKB1) ([8]; various ADP, constrained to be 5-fold or less, confidence limits extremely wide) [fold] | effect on activation by LKB1 [9] | IC50 [10] [µM] | EC50 [11] [µM] | EC50 [12] [µM] | EC50 [13] [µM]
Cc1cc(-c2ccc(/C=C3/SC(=Nc4ccc(Cl)c(C(=O)O)c4)NC3=O)o2)c([N+](=O)[O-])cc1C [PT-1] | all three complexes were activated | not | activates | all three complexes were activated | all three complexes were activated | did not promote glucose uptake |  |  |  |  |  |  |  |  | 
Nc1ncnc2c1ncn2[C@@H]1O[C@H](COP(=O)(O)OP(=O)(O)O)[C@@H](O)[C@H]1O [ADP] |  |  |  |  |  |  | not significant | 1800 µM and ≥ 1000 µM | ~2 | 5 | not significant | 6800 ± 3100 | 980 ± 150 | 180 ± 20 | 910 ± 70
